Experimental data from patent US8546076B2, “Mutational profile in HIV-1 GAG cleavage site correlated with phenotypic drug resistance” (Tibotec Pharmaceuticals Ltd., priority 2007, dated 2013).
“And” between values parts separate entries of the source, which are not always exact repeats. Identical values can stand only once. Like-named read-outs stand apart in the source and are kept apart here.

Test system: HIV-1
Conditions: for Change versus baseline in log10 viral load (NC = F, non-VF censored), Mean (SE) / Virologic response rate (TLOVR, non-VF censored) defined as a decrease ≧1.0 log10 in plasma viral load versus baseline / Virologic response rate (TLOVR, non-VF censored) defined as a viral load <50 HIV-1 RNA copies/mL / mean changes versus baseline in viral load (size of decrease): Week 24; for mean changes versus baseline in viral load (size of decrease): E428G and/or R452S at baseline
Procedure: Virologic response was defined as viral load ≦50 copies/mL at week 24.
GAG genotypic analysis was performed on virus isolates from subjects of pooled trials.
Virological failures were defined using the TLOVR non-virologic failure (VF)-censored algorithm in which the responses at time points after discontinuation are not imputed (i.e. left missing) for patients who drop for reasons other than virologic failures. Using this imputation, patients that drop out for reasons other than viro logic failure are not automatically considered as rebounders or non-responders.
Genotypic analyses were performed by automated population-based sequencing. Sequence data were aligned to the wildtype HIV-1/HXB2CG reference and reported as amino acid changes along GAG and PR. Genotypic mixtures (a combination of different amino acids at 1 position) were reported. Amino acids were presented with their one letter code. Mutations in the 5 PR cleavage sites in the GAG region, encompassing the amino acids 128-137 (p17/p24), 359-368 (p24/p2), 373-382 (p2/p7), 428-437 (p7/p1), and 444-453 (p1/p6), were reported.
Virologic response was defined using the TLOVR non-VF censored algorithm eliminating patients who had no chance to respond (discontinuation before Week 16). Several endpoints to assess virologic response, e.g. proportion of responders with confirmed 1.0 log10 decrease in viral load versus baseline, change in viral load from baseline (NC=F), and proportion of responders with viral load <50 or <400 HIV-1 RNA copies/mL were evaluated.
Virologic response was defined using the TLOVR, non-VF censored algorithm eliminating patients who had no chance to respond (discontinuation before Week 16), resulting in 445 subjects included in the analysis. To assess outcome, several endpoints including the primary endpoint (proportion of responders with confirmed 1.0 log10 decrease in viral load at Week 24), change in viral load from baseline at Week 24 and proportion of responders with viral load <50 HIV-1 RNA copies/mL at Week 24 were evaluated.
Only mutations present at baseline in 10 subjects of the no/non-naïve ENF group (N=327) were taken into consideration.

[1] = E428G (p7/p1) at baseline, All subjects
[2] = E428G (p7/p1) at baseline, naïve ENF
[3] = R452S (p1/p6) at baseline, All subjects
[4] = R452S (p1/p6) at baseline, naïve ENF

darunavir/ritonavir [DRV/rtv]
Change versus baseline in log10 viral load (NC = F, non-VF censored), Mean (SE) [1]: −1.07 (0.298) log10 HIV-1 RNA copies/mL | Virologic response rate (TLOVR, non-VF censored) defined as a decrease ≧1.0 log10 in plasma viral load versus baseline [1]: 9 (47.4) % | Virologic response rate (TLOVR, non-VF censored) defined as a viral load <50 HIV-1 RNA copies/mL [1]: 3 (15.8) % | Change versus baseline in log10 viral load (NC = F, non-VF censored), Mean (SE) [2]: −1.72 (0.763) log10 HIV-1 RNA copies/mL | Virologic response rate (TLOVR, non-VF censored) defined as a decrease ≧1.0 log10 in plasma viral load versus baseline [2]: 3 (75.0) % | Virologic response rate (TLOVR, non-VF censored) defined as a viral load <50 HIV-1 RNA copies/mL [2]: 1 (25.0) % | Change versus baseline in log10 viral load (NC = F, non-VF censored), Mean (SE) (E428G (p7/p1) at baseline, no/non-naïve ENF): −0.89 (0.318) log10 HIV-1 RNA copies/mL | mean changes versus baseline in viral load (size of decrease) (no/non-naïve ENF): < 1.0 log10 and > 0.5 log10 | mean changes versus baseline in viral load (size of decrease) (other subgroups (All, naïve ENF)): > 1.0 log10 | Virologic response rate (TLOVR, non-VF censored) defined as a viral load <50 HIV-1 RNA copies/mL (L449P (p1/p6) at baseline, All subjects): 12 (36.4) % | Virologic response rate (TLOVR, non-VF censored) defined as a viral load <50 HIV-1 RNA copies/mL (L449P (p1/p6) at baseline, naïve ENF): 6 (50.0) % | Change versus baseline in log10 viral load (NC = F, non-VF censored), Mean (SE) (Overall, All subjects): −1.84 (0.061) log10 HIV-1 RNA copies/mL | Virologic response rate (TLOVR, non-VF censored) defined as a decrease ≧1.0 log10 in plasma viral load versus baseline (Overall, All subjects): 315 (70.8) % | Virologic response rate (TLOVR, non-VF censored) defined as a viral load <50 HIV-1 RNA copies/mL (Overall, All subjects): 207 (46.5) % | Change versus baseline in log10 viral load (NC = F, non-VF censored), Mean (SE) (Overall, naïve ENF): −2.33 (0.109) log10 HIV-1 RNA copies/mL | Virologic response rate (TLOVR, non-VF censored) defined as a decrease ≧1.0 log10 in plasma viral load versus baseline (Overall, naïve ENF): 102 (86.4) % | Virologic response rate (TLOVR, non-VF censored) defined as a viral load <50 HIV-1 RNA copies/mL (Overall, naïve ENF): 66 (55.9) % | Change versus baseline in log10 viral load (NC = F, non-VF censored), Mean (SE) (Overall, no/non-naïve ENF): −1.67 (0.071) log10 HIV-1 RNA copies/mL | Change versus baseline in log10 viral load (NC = F, non-VF censored), Mean (SE) [3]: −1.12 (0.293) log10 HIV-1 RNA copies/mL | Virologic response rate (TLOVR, non-VF censored) defined as a decrease ≧1.0 log10 in plasma viral load versus baseline [3]: 12 (48.0) % | Virologic response rate (TLOVR, non-VF censored) defined as a viral load <50 HIV-1 RNA copies/mL [3]: 7 (28.0) % | Change versus baseline in log10 viral load (NC = F, non-VF censored), Mean (SE) [4]: −2.50 (0.276) log10 HIV-1 RNA copies/mL | Virologic response rate (TLOVR, non-VF censored) defined as a decrease ≧1.0 log10 in plasma viral load versus baseline [4]: 7 (100) % | Virologic response rate (TLOVR, non-VF censored) defined as a viral load <50 HIV-1 RNA copies/mL [4]: 6 (85.7) % | Change versus baseline in log10 viral load (NC = F, non-VF censored), Mean (SE) (R452S (p1/p6) at baseline, no/non-naïve ENF): −0.58 (0.312) log10 HIV-1 RNA copies/mL | Virologic response rate (TLOVR, non-VF censored) defined as a viral load <50 HIV-1 RNA copies/mL (S451T (p1/p6) at baseline, All subjects): 4 (18.2) % | Virologic response rate (TLOVR, non-VF censored) defined as a viral load <50 HIV-1 RNA copies/mL (S451T (p1/p6) at baseline, naïve ENF): 1 (12.5) % | virologic response (viral load ≦50 copies/mL) relative to overall response (week 24, E428G at baseline, univariate analysis, N=467): < 75 % of overall response
